Laboratory results: ChEMBL document CHEMBL1124519 (J Med Chem, 1989)

How the values were obtained:
Homo sapiens = species: Homo sapiens; assay: Half-life period obtained from linear regression of metabolite concentration in Human plasma containing 100 mM phosphate, at pH 7.4; type: ADME
[1] = Half-life period obtained from linear regression of metabolite concentration in aqueous buffer of pH 7.4 at 37 degrees Celsius in 100 mM phosphate buffer.; type: ADME
L1210 = assay: The cytotoxicity (LC99) was evaluated in vitro against L1210 cells obtained from cultured mice.; type: functional, Mus musculus
[2] = Half-life period obtained from linear regression of metabolite concentration in aqueous buffer of pH 7.4 at 37 degrees Celsius in 200 mM phosphate buffer.; type: ADME

| SMILES | T1/2 (Homo sapiens) [min] | T1/2 [1] [min] | LC99 (L1210) [µM] | T1/2 [2] [min] |
| --- | --- | --- | --- | --- |
| O=CCCOP(=O)(NCCCl)NCCCl.O=P1(NCCCl)OCCC(O)N1CCCl | 10 | 50 | 12.6 | – |
| O=P(O)(NCCCl)NCCCl [PALIFOSFAMIDE] | – | – | 70 | 61 |
